Results on one molecule are retold here after ChEMBL document CHEMBL1144862, “A mechanism for substrate-Induced formation of 6-hydroxyflavin mononucleotide catalyzed by C30A trimethylamine dehydrogenase” (Bioorg Med Chem Lett, 2003).

This data set in a line: Kcat value was determined. The data set is classed as ADME.

The structures appear in SMILES notation.

Take `Cc1cc2c(nc3c(=O)[nH]c(=O)nc-3n2C[C@@H](O)[C@@H](O)[C@@H](O)COP(=O)(O)O)c(O)c1C`: the k cat was under 2.
